{
  "source": "patent US20140030808A1",
  "about": "“Method for Cellular RNA Expression” (BIONTECH AG, priority 2010, published 2014)",
  "key": {"[1]": {"system": "immature dendritic cells (iDCs)", "type": "cell-based, human", "details": "0.5 μM to 2 μM"}, "[2]": {"system": "Human primary CD4 and CD8 positive T-cells", "type": "cell-based", "details": "0.5 μM to 2 μM"}, "[3]": {"system": "Primary human foreskin fibroblasts (HFF)", "type": "cell-based", "details": "24 h supernatants"}, "[4]": {"system": "human foreskin fibroblasts", "assay": "Luciferase activity after lipofection (RNAiMAX) of IVT RNA", "type": "cell-based", "details": "increasing concentrations", "experimental": "1.2 μg 5′-triphosphorylated and non-modified IVT RNA (0.8 μg encoding luciferase, 0.4 μg GFP) was packaged with 6 μl RNAiMAX transfection reagent (Invitrogen) and transfected into human foreskin fibroblasts and the medium supplemented with increasing concentrations of C13H8N4OS. At the indicated time points the cells were lysed and luciferase activity of the lysates was measured. […] This effect was dose-dependent.\nTo study whether C13H8N4OS could also enhance translation upon liposomal IVT RNA transfer, 1.2 μg 5′-triphosphorylated and non-modified IVT RNA (0.8 μg encoding luciferase, 0.4 μg GFP) was packaged with 6 μl RNAiMAX transfection reagent (Invitrogen) and transfected into human foreskin fibroblasts. After 3 h incubation with the transfection mixture, the medium was renewed and supplemented with increasing concentrations of C13H8N4OS. At the time points indicated in FIG. 15 the cells were lysed using luciferase stabilizing passive lysis buffer (Promega) according to the manufacturer's instructions. By the end of the time course, luciferase activity of all lysates was measured. […] This effect was dose-dependent. One of three independently performed experiments is shown. Thus, the effect of C13H8N4OS on translation of IVT RNA is not restricted to the delivery via electroporation. […]"}, "MEFs": {"system": "MEFs", "assay": "GFP expression by flow cytometry (MFI) in murine fibroblasts electroporated with IVT RNA", "type": "cell-based", "details": "0.5 μM to 2 μM, mouse fibroblasts", "experimental": "(AB) Primary human foreskin fibroblasts from different donors and suppliers (panel A: BJ fibroblasts; panel B CCD1079Sk) and (C) MEFs were electroporated with 0.5 μg IVT RNA encoding for firefly luciferase and 1.25 μg IVT RNA encoding for enhanced GFP (eGFP). The cells were plated into […] at a density of 250000 cells/well. The cells were either left untreated or incubated with increasing amounts of C13H8N4OS (PKR-inhibitor) ranging from 0.5 μM to 2 μM as indicated in the panel legends. GFP expression was measured by flow cytometry at the indicated time points. The mean fluorescence intensity (MFI) of the transfected GFP-positive cell fractions is shown.\nTransfer of IVT-RNA into cells was performed by electroporation (EP). […]\n(§1) For quantification of d2eGFP and eGFP protein, cells were washed in PBS, fixed using PBS supplemented with 2% formaldehyde and analyzed by flow cytometry on a FACS Canto II flow cytometer (BD Biosciences, Heidelberg, Germany). Gating was performed on living cells and mean fluorescence intensity (MFI) of GFP expressing cell populations was quantified using FlowJo software (Tree Star, Ashland, Oreg., USA). […] Gating was performed on living CD4+ and CD8+ T-cells and GFP expression and MFI of both T-cell subpopulations was determined by flow cytometry. […]"}, "[5]": {"system": "immature dendritic cells (iDCs)", "assay": "GFP expression by flow cytometry in iDCs electroporated with IVT RNA", "type": "cell-based, human", "details": "0.5 μM to 2 μM", "experimental": "Human primary CD4 and CD 8 positive T-cells, as well as immature dendritic cells (iDCs) were isolated and electroporated with 5 μg IVT RNA encoding for destabilized GFP. iDCs were coelectroporated with 1 μg IVT RNA encoding for firefly luciferase. The cells were either left untreated or incubated with increasing amounts of C13H8N4OS (PKR-inhibitor) ranging from 0.5 μM to 2 μM as indicated in the panel legends. (A) T-cells and (B) iDCs were harvested at the indicated time points and GFP expression was assessed by flow cytometry. The mean fluorescence intensity (MFI) of the transfected, GFP-positive cell fractions is shown. (C) For luciferase assays, iDCs were plated in duplicates into 96-well-plates at a density of 10000 cells/well. Luciferase activity was measured at the indicated time points. Mean values of the duplicates are given.\nas §1"}},
  "data": [
    {"smiles": "O=C1Nc2ccc3ncsc3c2/C1=C/c1c[nH]cn1", "note": "[C13H8N4OS, 6,8-dihydro-8-(1H-imidazol-5-ylmethylene)-7H-pyrrolo[2,3-g]benzothiazol-7-one]", "values": [
      {"measurement": "luciferase expression", "setting": "[1]", "result": "loss of luciferase expression"},
      {"measurement": "GFP expression (MFI)", "setting": "[2]", "result": "Neither in T-cells nor in iDCs PKR inhibition led to an increased GFP expression"},
      {"measurement": "secretion of IFNβ", "setting": "[3]; 2 μM C13H8N4OS, HFF electroporated with eGFP IVT RNA", "result": "remarkably enhanced"},
      {"measurement": "secretion of IFNα", "setting": "[3]; HFF, with or without 2 μM C13H8N4OS", "result": "not observed"},
      {"measurement": "dose dependence of the effect on translation of luciferase", "setting": "[4]", "result": "dose-dependent"},
      {"measurement": "translation of luciferase after liposomal IVT RNA transfer", "setting": "[4]", "result": "stabilizing effect on translation of luciferase"},
      {"measurement": "GFP expression (MFI)", "setting": "MEFs", "result": "dose dependent increase"},
      {"measurement": "GFP expression (MFI)", "setting": "[5]", "result": "Neither in T-cells nor in iDCs PKR inhibition led to an increased GFP expression"}
    ]}
  ]
}
